Measured values taken from patent US9463188B2, “Osteopontin production inhibitor containing dictyopyrone derivative or dihydrodictyopyrone derivative as active ingredient” (TOHOKU UNIVERSITY, priority 2013, dated 2016).

Tested on: human non-small cell lung cancer-derived cell line A549
Assay: Matrix-Invasion assay (Matrigel)
Assay type: cell-based
Description: As a second test for determining whether or not the physiological function of cells induced by OPN production is suppressed by a test compound, Matrix-Invasion assay was performed. In this assay, cups (inserts) whose bottom was covered with a membrane coated with collagen or laminin (Matrigel, BD Bioscience) as an extracellular matrix component and having φ8 μm pores and a 24-well plate for inserting the inserts were prepared. Cells suspended in a serum-free medium were placed in the inside insert, and a medium containing a substance inducing metastasis and invasion of cells (here, fetal calf serum) was injected into each well of the outside 24-well plate to determine the number of cells passing through the Matrigel-coated membrane of the insert and coming into the outside well.
Specifically, a fluorescent dye was introduced into A549 cells invading outside the membrane, and then the cells were separated from the membrane to measure their fluorescence intensity. At the same time, a fluorescent dye was introduced also into a known number of cells for preparing a calibration curve, and a calibration curve was prepared from their fluorescence intensity. Then, the number of invading cells of a test sample containing an unknown number of cells was determined from the fitted curve.
Cancer cells produce OPN by stimulation of fetal calf serum added to the outside medium. However, when OPN is present in the culture liquid, the cells produce Matrix Metalloproteinase (MMP) that is a collagen-degrading enzyme so that Matrigel is dissolved, and in addition, the cells transfer to the outside well due to their improved migration capacity. […]
Cells of a human non-small cell lung cancer-derived cell line A549 were suspended in DMEM medium containing 10% FCS and 1% P/S at 1.8×10^5 cells/mL to obtain a cell suspension. […] This day was counted as Day 0 of operation. […]

SMILES: CCCCCCCCCCCC(=O)[C@H]1C(=O)O[C@@H](C)C[C@@H]1C [Chemical formula 3]
- total number of invading cells vs control group (25 μmol/L, 48±4 hours): no significant difference
- total number of invading cells relative to control group (50 μmol/L, 48±4 hours): about half
- suppression of matrix invasion vs control group (A549 cells, 50 μmol/L, significance level less than 1%): significantly suppressed
